According to the supplement of paper PMC10307832:

Columns and labels:
Assay in all cases: relative viability (nuclei count vs DMSO), 5 days (fraction); higher = more cells survive
IDH-C35 + Pictilisib = compound: Cc1ccccc1C(C(=O)NC1CCCCC1)N(C(=O)Cn1ccnc1C)c1cccc(F)c1 [IDH-C35] + CS(=O)(=O)N1CCN(Cc2cc3nc(-c4cccc5[nH]ncc45)nc(N4CCOCC4)c3s2)CC1 [Pictilisib] (partner 1 µM)
Method in brief: (§1)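 Relative viability is defined as nuclei in treated wells over nuclei in vehicle wells. Duplicate plates were run and medians reported. Lung cancer cell lines in 1536-well plates were dosed by pin tool one day after seeding, with one drug or with a fixed anchor-drug dose plus five library-drug doses (not always all listed) in √10 steps, and nuclei were counted after 5 days.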

[1] = compound: CC1=C(C(=NN1)C)CC2=C(C3=C(S2)N(C(=O)N(C3=O)C)CC(C)C)C(=O)N4C[C@@H](CO4)O + O=C(c1cc(Cc2n[nH]c(=O)c3ccccc23)ccc1F)N1CCN(C(=O)C2CC2)CC1 [Olaparib] (partner 8 µM)
Method in brief: as §1

[2] = compound: CC1=C(C(=NN1)C)CC2=C(C3=C(S2)N(C(=O)N(C3=O)C)CC(C)C)C(=O)N4C[C@@H](CO4)O + CCNC(=O)c1noc(-c2cc(C(C)C)c(O)cc2O)c1-c1ccc(CN2CCOCC2)cc1 [Luminespib] (partner 0.01 µM)
Method in brief: as §1

IDH-C35 + AZD7762 = compound: Cc1ccccc1C(C(=O)NC1CCCCC1)N(C(=O)Cn1ccnc1C)c1cccc(F)c1 [IDH-C35] + NC(=O)Nc1cc(-c2cccc(F)c2)sc1C(=O)N[C@H]1CCCNC1 [AZD7762] (partner 0.2 µM)
Method in brief: as §1

Row | Cell Line | relative viability (IDH-C35 + Pictilisib; first compound 0.08 µM) | relative viability (IDH-C35 + Pictilisib; first compound 0.253 µM) | relative viability (IDH-C35 + Pictilisib; first compound 0.8 µM) | relative viability (IDH-C35 + Pictilisib; first compound 2.53 µM) | relative viability (IDH-C35 + Pictilisib; first compound 8 µM) | relative viability ([1]; first compound 0.0025 µM) | relative viability ([1]; first compound 0.007906 µM) | relative viability ([1]; first compound 0.025 µM) | relative viability ([1]; first compound 0.07906 µM) | relative viability ([1]; first compound 0.25 µM) | relative viability ([2]; first compound 0.0025 µM) | relative viability ([2]; first compound 0.007906 µM) | relative viability ([2]; first compound 0.025 µM) | relative viability ([2]; first compound 0.07906 µM) | relative viability ([2]; first compound 0.25 µM) | relative viability (IDH-C35 + AZD7762; first compound 0.08 µM) | relative viability (IDH-C35 + AZD7762; first compound 0.253 µM) | relative viability (IDH-C35 + AZD7762; first compound 0.8 µM) | relative viability (IDH-C35 + AZD7762; first compound 2.53 µM) | relative viability (IDH-C35 + AZD7762; first compound 8 µM)
1 | NCI-H2126 | 0.494 | 0.508 | 0.48 | 0.507 | 0.472 | 0.962 | 0.951 | 0.874 | 0.865 | 0.914 | 0.959 | 0.845 | 0.878 | 0.892 | 0.951 | 0.983 | 0.96 | 0.983 | 0.927 | 0.946
2 | EMC-BAC-2 | 0.493 | 0.55 | 0.51 | 0.487 | 0.521 | 0.546 | 0.464 | 0.474 | 0.489 | 0.527 | 1.17 | 1.23 | 1.2 | 1.32 | 1.29 | 1.1 | 1.12 | 1.16 | 1.18 | 1.16
3 | NCI-H1993 | 0.902 | 0.853 | 0.766 | 0.743 | 0.712 | 0.964 | 0.957 | 0.947 | 0.844 | 0.912 | 0.727 | 0.706 | 0.765 | 0.65 | 0.749 | 0.755 | 0.749 | 0.755 | 0.784 | 0.713
4 | NCI-H647 | 0.445 | 0.411 | 0.339 | – | 0.417 | 0.626 | 0.415 | 0.481 | 0.647 | 0.685 | 0.135 | 0.138 | 0.171 | 0.325 | 0.163 | 0.489 | 0.488 | 0.424 | 0.42 | 0.418
5 | NCI-H1792 | 0.231 | 0.3 | 0.251 | 0.345 | 0.277 | 0.542 | 0.384 | 0.356 | 0.383 | 0.246 | 0.458 | 0.488 | 0.416 | 0.338 | 0.379 | 0.795 | 0.725 | 0.657 | 0.719 | 0.609
6 | ChaGo-K-1 | 0.451 | 0.71 | 0.742 | 0.681 | 0.918 | 0.466 | 0.42 | 0.414 | 0.404 | 0.435 | 0.671 | 0.597 | 0.583 | 0.677 | 0.546 | 0.97 | 0.928 | 0.899 | 0.819 | 0.818
7 | LOU-NH91 | 0.528 | 0.548 | 0.516 | 0.496 | 0.531 | 0.912 | 0.877 | 0.925 | 0.956 | 0.926 | 0.371 | 0.359 | 0.331 | 0.363 | 0.223 | 0.805 | 0.73 | 0.753 | 0.765 | 0.815
8 | NCI-H2405 | 0.487 | 0.363 | 0.377 | – | 0.52 | 0.876 | 0.806 | 0.885 | 0.749 | 0.875 | 0.778 | 0.849 | – | 0.706 | 0.684 | 0.857 | 0.771 | 0.815 | 0.913 | 0.768
9 | LCLC-97TM1 | 0.17 | 0.168 | 0.192 | – | 0.192 | 0.492 | 0.519 | 0.404 | 0.38 | 0.414 | 0.611 | 0.774 | 0.889 | 0.698 | 0.801 | 0.265 | 0.384 | 0.143 | – | 0.192
10 | NCI-H596 | 0.434 | 0.442 | 0.435 | 0.537 | 0.384 | 0.765 | 0.743 | 0.73 | 0.696 | 0.635 | 0.991 | 1.12 | 0.992 | 1.03 | 1.24 | 0.959 | 1.14 | 1.01 | 1.05 | 1.26
11 | NCI-H727 | 0.528 | 0.522 | 0.54 | 0.441 | 0.43 | 0.813 | 0.762 | 0.747 | 0.782 | 0.568 | 0.309 | 0.378 | 0.387 | 0.369 | 0.387 | 0.633 | 0.655 | 0.539 | 0.469 | 0.597
12 | H3255 | 0.454 | 0.546 | 0.474 | 0.503 | 0.424 | 0.555 | 0.56 | 0.52 | 0.546 | 0.576 | 0.953 | 1.04 | 0.861 | 0.944 | 0.887 | 0.814 | 0.947 | 0.924 | 0.88 | 0.829
13 | NCI-H1437 | 0.416 | 0.494 | 0.476 | 0.439 | 0.368 | 0.624 | 0.622 | 0.635 | 0.643 | 0.613 | 1.13 | 1.14 | 1.04 | 1.19 | 1.16 | 1.09 | 1.12 | 1.17 | 1.06 | 1.08
14 | LU99A | 0.337 | 0.299 | 0.326 | 0.317 | 0.361 | 0.224 | 0.262 | 0.246 | 0.193 | 0.229 | 0.337 | 0.297 | 0.203 | 0.224 | 0.237 | 0.326 | 0.398 | 0.396 | 0.335 | 0.36
